The molecules below were run against Protein-arginine deiminase type-4 (Homo sapiens, UniProt Q9UM07) (assay: Inhibition of human PAD4 using BAEE as substrate preincubated with enzyme for 30 mins followed by substrate addition for 90 mins and later incubated with phenyl glyoxal for 30 mins by RFMS assay).
Protein-arginine deiminase type-4, sequence (Q9UM07 whole entry): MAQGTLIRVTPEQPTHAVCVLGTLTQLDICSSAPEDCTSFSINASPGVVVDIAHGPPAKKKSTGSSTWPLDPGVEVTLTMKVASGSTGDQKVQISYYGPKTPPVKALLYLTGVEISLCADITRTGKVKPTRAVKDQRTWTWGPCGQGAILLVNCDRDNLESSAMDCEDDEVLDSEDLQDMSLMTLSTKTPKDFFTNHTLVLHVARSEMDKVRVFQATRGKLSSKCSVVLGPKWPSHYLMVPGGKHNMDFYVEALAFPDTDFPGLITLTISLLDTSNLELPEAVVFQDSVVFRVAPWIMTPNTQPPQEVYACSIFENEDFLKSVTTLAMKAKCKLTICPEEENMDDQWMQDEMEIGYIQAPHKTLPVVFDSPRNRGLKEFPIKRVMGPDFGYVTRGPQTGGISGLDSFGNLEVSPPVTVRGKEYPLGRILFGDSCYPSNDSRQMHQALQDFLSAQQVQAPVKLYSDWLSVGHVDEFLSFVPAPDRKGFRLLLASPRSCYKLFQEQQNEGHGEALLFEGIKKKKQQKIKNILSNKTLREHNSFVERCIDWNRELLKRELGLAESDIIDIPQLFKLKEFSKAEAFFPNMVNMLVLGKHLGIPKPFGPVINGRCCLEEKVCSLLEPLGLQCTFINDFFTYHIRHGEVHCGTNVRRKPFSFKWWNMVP

Row | IC50 | Compound
1 | ≤ 0.01 µM | Cn1c(-c2cc3cccc(OCCc4ccon4)c3n2CC2CC2)nc2cc3c(nc21)CCN(C[C@H](N)CF)C3=O
2 | ≤ 0.01 µM | Cn1c(-c2cc3cccc(OCCc4cccnc4)c3n2CC2CC2)nc2cc3c(nc21)CCN(C[C@H](N)CF)C3=O
3 | ≤ 0.01 µM | Cn1c(-c2cc3ccnc(OCCn4ccnc4)c3n2CC2CC2)nc2cc3c(nc21)CCN(C[C@H](N)CF)C3=O
4 | ≤ 0.01 µM | Cn1c(-c2cc3cccc(OCCc4cnco4)c3n2CC2CC2)nc2cc3c(nc21)CCN(C[C@H](N)CF)C3=O
5 | ≤ 0.01 µM | Cn1c(-c2cc3cccc(OCCc4ccn[nH]4)c3n2CC2CC2)nc2cc3c(nc21)CCN(C[C@H](N)CF)C3=O
6 | ≤ 0.01 µM | Cn1c(-c2cc3cccc(OCCc4cnn[nH]4)c3n2CC2CC2)nc2cc3c(nc21)CCN(C[C@H](N)CF)C3=O

Source: ChEMBL document CHEMBL5344468, “Novel Heterocyclic PAD4 Inhibitors for Treating Diseases” (ACS Med Chem Lett, 2024)
